Data on 15 molecules can be found in patent US20250100960A1, “NAPHTHALENE AND QUINOLINE ANALOGS AS RXFP1 AGONISTS” (BRISTOL-MYERS SQUIBB COMPANY, priority 2021, published 2025).

One series deals with T1, human RXFP1 (Homo sapiens, UniProt Q9HBX9).
T1 construct: expressed in transfected cells; host or cells: HEK293
T1 sequence (Q9HBX9 1-757): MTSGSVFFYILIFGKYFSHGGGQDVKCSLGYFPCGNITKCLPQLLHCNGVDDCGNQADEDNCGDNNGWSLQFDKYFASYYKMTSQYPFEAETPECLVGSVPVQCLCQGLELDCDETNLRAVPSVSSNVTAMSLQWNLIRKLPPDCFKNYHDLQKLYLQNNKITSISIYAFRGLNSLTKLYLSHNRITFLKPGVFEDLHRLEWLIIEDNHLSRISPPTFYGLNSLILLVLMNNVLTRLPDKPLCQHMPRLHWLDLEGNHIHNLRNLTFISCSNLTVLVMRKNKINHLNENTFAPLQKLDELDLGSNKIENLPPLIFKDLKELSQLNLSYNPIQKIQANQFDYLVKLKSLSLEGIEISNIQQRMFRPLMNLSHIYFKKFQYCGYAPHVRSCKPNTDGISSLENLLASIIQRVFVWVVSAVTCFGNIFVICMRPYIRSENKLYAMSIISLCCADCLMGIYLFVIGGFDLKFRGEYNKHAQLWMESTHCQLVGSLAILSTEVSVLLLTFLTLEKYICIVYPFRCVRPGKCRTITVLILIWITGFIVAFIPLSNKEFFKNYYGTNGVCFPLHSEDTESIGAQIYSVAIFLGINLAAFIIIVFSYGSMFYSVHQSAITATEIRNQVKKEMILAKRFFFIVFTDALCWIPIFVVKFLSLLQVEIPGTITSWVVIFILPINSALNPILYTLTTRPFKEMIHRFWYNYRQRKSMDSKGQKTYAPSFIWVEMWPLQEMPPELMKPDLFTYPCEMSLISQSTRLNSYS
The experiment in a line: hRXFP1 HEK293 cAMP assay. The class given is cell-based. Particulars: HEK293 cells stably expressing human RXFP1; intracellular cAMP by HTRF; 30 min at room temperature. The protocol:
RXFP1 Cyclic Adenosine Monophosphate (cAMP) Assays. Human embryonic kidney cells 293 (HEK293) cells and HEK293 cells stably expressing human RXFP1, were cultured in MEM medium supplemented with 10% qualified FBS, and 300 μg/ml hygromycin (Life Technologies). Cells were dissociated and suspended in assay buffer. The assay buffer was HBSS buffer (with calcium and magnesium) containing 20 mM HEPES, 0.05% BSA, and 0.5 mM IBMX. Cells (3000 cells per well, except 1500 cell per well for HEK293 cells stably expressing human RXFP1) were added to 384-well Proxiplates (Perkin-Elmer). Cells were immediately treated with test compounds in DMSO (2% final) at final concentrations in the range of 0.010 nM to 50 μM. Cells were incubated for 30 min at room temperature. The level of intracellular cAMP was determined using the HTRF HiRange cAMP assay reagent kit (Cisbio) according to manufacturer's instructions. Solutions of cryptate conjugated anti-cAMP and d2 fluorophore-labelled cAMP were made in a supplied lysis buffer separately. Upon completion of the reaction, the cells were lysed with equal volume of the d2-cAMP solution and anti-cAMP solution. After a 1 h room temperature incubation, time-resolved fluorescence intensity was measured using the Envision (Perkin-Elmer) at 400 nm excitation and dual emission at 590 nm and 665 nm. A calibration curve was constructed with an external cAMP standard at concentrations ranging from 2.7 μM to 0.1 μM by plotting the fluorescent intensity ratio from 665 nm emission to the intensity from the 590 nm emission against cAMP concentrations. The potency and activity of a compound to […] cAMP production was then determined by fitting to a 4-parametric logistic equation from a plot of cAMP level versus compound concentrations.
The examples disclosed below were tested in the human RXFP1 (hRXFP1) HEK293 cAMP assay described above and found to have agonist activity. Tables 1-3, lists EC50 values in the hRXFP1 HEK293 cAMP assay measured for the examples.
In general terms: Cyclic AMP is a second messenger, typically raised through Gs and lowered through Gi signalling.

The conditions of series [1]: intravenous (IV) formulation; cited from earlier work.

In general, EC50 refers to the concentration at which the effect is half-maximal. A high value points to a less potent agent. The molecule `COc1ccc(-c2cc(C(=O)O)ccc2F)cc1C(=O)Nc1cc2c(Br)cccc2cc1C(=O)Nc1ccc(F)c(C(F)(F)F)c1` [Example 6, 3′-((8-bromo-3-((4-fluoro-3-(trifluoromethyl)phenyl)carbamoyl)naphthalen-2-yl)carbamoyl)-6-fluoro-4′-methoxy-[1,1′-biphenyl]-3-carboxylic acid] had an EC50 on human RXFP1 of 1300 nM.
On to `COc1ccc(N2CCCS2(=O)=O)cc1C(=O)Nc1cc2ccccc2cc1C(=O)Nc1ccc(F)c(C(F)(F)F)c1` [Example 11, 3-(5-(1,1-dioxidoisothiazolidin-2-yl)-2-methoxybenzamido)-N-(4-fluoro-3-(trifluoromethyl)-phenyl)-2-naphthamide], for which the EC50 on human RXFP1 stood at 2000 nM. Against the preceding molecule, the EC50 is about 1.5-fold higher.
As to `COc1ccc(-c2cc(C(NC(=O)C3CCOCC3)C(=O)O)ccc2F)cc1C(=O)Nc1cc2cc(Br)c(Br)cc2cc1C(=O)Nc1ccc(F)c(C(F)(F)F)c1` (stereo not drawn) [Example 3, 2-(3′-((6,7-dibromo-3-((4-fluoro-3-(trifluoromethyl)phenyl)-carbamoyl)naphthalen-2-yl)carbamoyl)-6-fluoro-4′-methoxy-[1,1′-biphenyl]-3-yl)-2-(tetrahydro-2H-pyran-4-carboxamido)acetic acid], the concentration for a half-maximal effect (EC50) on human RXFP1 was 190 nM.
`COc1ccc(-c2cc([C@H](OC(=O)NC3CCC3)C(F)(F)F)ccc2F)cc1C(=O)Nc1cc2ccccc2cc1C(=O)Nc1ccc(F)c(C(F)(F)F)c1` [Example 5, (S)-2,2,2-trifluoro-1-(6-fluoro-3′-((3-((4-fluoro-3-(trifluoromethyl)phenyl)carbamoyl)-naphthalen-2-yl)carbamoyl)-4′-methoxy-[1,1′-biphenyl]-3-yl)ethyl cyclobutylcarbamate] gave a half-maximal effective concentration (EC50) at human RXFP1 of 11 nM.
`COc1ccc(-c2cc(C(NC(=O)C3CCOCC3)C(=O)O)ccc2F)cc1C(=O)Nc1cc2ccccc2cc1C(=O)Nc1ccc(F)c(C(F)(F)F)c1` (stereo not drawn) [Example 2, 2-(6-fluoro-3′-((3-((4-fluoro-3-(trifluoromethyl)phenyl)carbamoyl)naphthalen-2-yl)carbamoyl)-4′-methoxy-[1,1′-biphenyl]-3-yl)-2-(tetrahydro-2H-pyran-4-carboxamido)acetic acid] registered an EC50 on human RXFP1 of 4.2 nM.
With `COc1ccc(S(=O)(=O)CCCO)cc1C(=O)Nc1cc2ccccc2cc1C(=O)Nc1ccc(F)c(C(F)(F)F)c1` [Example 9, N-(4-fluoro-3-(trifluoromethyl)phenyl)-3-(5-((3-hydroxypropyl)sulfonyl)-2-methoxybenzamido)-2-naphthamide], the half-maximal effective concentration (EC50) at human RXFP1 worked out at 4800 nM.
In turn, `COc1ccc(C#C[C@H](C)O)cc1C(=O)Nc1cc2ccccc2cc1C(=O)Nc1ccc(F)c(C(F)(F)F)c1` [Example 10, (S)—N-(4-fluoro-3-(trifluoromethyl)phenyl)-3-(5-(3-hydroxybut-1-yn-1-yl)-2-methoxybenzamido)-2-naphthamide] came in with an EC50 at human RXFP1 of 5000 nM.
In turn, `COc1ccc(-c2cc(C(=O)O)ccc2F)cc1C(=O)Nc1cc2ccc(Br)cc2cc1C(=O)Nc1ccc(F)c(C(F)(F)F)c1` [Example 8, 3′-((6-bromo-3-((4-fluoro-3-(trifluoromethyl)phenyl)carbamoyl)naphthalen-2-yl)carbamoyl)-6-fluoro-4′-methoxy-[1,1′-biphenyl]-3-carboxylic acid] registered an EC50 on human RXFP1 of 2600 nM.
On to `COc1ccc(-n2ncccc2=O)cc1C(=O)Nc1cc2ccccc2cc1C(=O)Nc1ccc(F)c(C(F)(F)F)c1` [Example 12, N-(4-fluoro-3-(trifluoromethyl)phenyl)-3-(2-methoxy-5-(6-oxopyridazin-1(6H)-yl)benzamido)-2-naphthamide], for which a half-maximal response on human RXFP1 (EC50) required 1400 nM.
Regarding `COc1ccc(C2=NOC3CC(CO)CC23)cc1C(=O)Nc1cc2ccccc2cc1C(=O)Nc1ccc(F)c(C(F)(F)F)c1` (single isomer, unassigned) [Example 14, N-(4-fluoro-3-(trifluoromethyl)phenyl)-3-(5-(5-(hydroxymethyl)-3a,5,6,6a-tetrahydro-4H-cyclopenta[d]isoxazol-3-yl)-2-methoxybenzamido)-2-naphthamide], a half-maximal effect at human RXFP1 (EC50) was put at 60 nM.
For the molecule `COc1ccc(-c2cc(C(O)C(=O)O)ccc2F)cc1C(=O)Nc1cc2ccccc2cc1C(=O)Nc1ccc(F)c(C(F)(F)F)c1` (single isomer, unassigned) [Example 4, 2-(6-fluoro-3′-((3-((4-fluoro-3-(trifluoromethyl)phenyl)carbamoyl)naphthalen-2-yl)carbamoyl)-4′-methoxy-[1,1′-biphenyl]-3-yl)-2-hydroxyacetic acid], at human RXFP1, the EC50 turned out to be 490 nM.
Consider Serelaxin, for which the first-phase pharmacokinetic half-life in series [1] is 5.4 min.
As for `COc1ccc(C2=NOC3CC(CO)CC23)cc1C(=O)Nc1cc2ccccc2cc1C(=O)Nc1ccc(F)c(C(F)(F)F)c1` (single isomer, unassigned) [Example 13, N-(4-fluoro-3-(trifluoromethyl)phenyl)-3-(5-(5-(hydroxymethyl)-3a,5,6,6a-tetrahydro-4H-cyclopenta[d]isoxazol-3-yl)-2-methoxybenzamido)-2-naphthamide], the half-maximal effective concentration (EC50) at human RXFP1 was determined as 320 nM.
On human RXFP1, `COc1ccc(-c2cc(C(=O)O)ccc2F)cc1C(=O)Nc1cc2ccccc2cc1C(=O)Nc1ccc(F)c(C(F)(F)F)c1` [Example 1, 6-fluoro-3′-((3-((4-fluoro-3-(trifluoromethyl)phenyl)carbamoyl)naphthalen-2-yl)carbamoyl)-4′-methoxy-[1,1′-biphenyl]-3-carboxylic acid] yielded a concentration for a half-maximal effect (EC50) of 1100 nM. This EC50 lies about 3.4-fold higher than the previous one.
Consider `COc1ccc(C2=NOC3CC(O)CC23)cc1C(=O)Nc1cc2ccccc2cc1C(=O)Nc1ccc(F)c(C(F)(F)F)c1` (single isomer, unassigned) [Example 15, N-(4-fluoro-3-(trifluoromethyl)phenyl)-3-(5-(5-hydroxy-3a,5,6,6a-tetrahydro-4H-cyclopenta[d]isoxazol-3-yl)-2-methoxybenzamido)-2-naphthamide], for which, at human RXFP1, it took 190 nM to reach a half-maximal effect (EC50). Compared with the last molecule, the EC50 is about 5.8-fold lower.
